Results reported in EP4722205A1, “HETEROCYCLIC COMPOUND AND NOXIOUS ARTHROPOD-CONTROLLING COMPOSITION CONTAINING SAME” (Sumitomo Chemical Company, Limited, priority 2023, dated 2024).

Key:
Format in all cases: in vivo
[1] = system: cotton aphids (Aphis gossypii); assay: Test Method 1: foliar spray on cucumber seedling infested with cotton aphids (Formulation example 1); details: 120 h, spray 10 mL/seedling, examined after 5 days, 25°C, read-out: controlling value
[2] = system: cotton worm (Spodoptera litura); assay: Test Method 3: sprayed cabbage leaves fed to second instar cotton worm; details: 120 h, second instar larvae, after 5 days, 25°C, read-out: mortality of insects
Procedure: (§1) The following tests in the test examples below were conducted at 25°C.
(§2) Cabbage (Brassicae oleracea) seedling (on the developmental stage of the second to third true leaf) is planted in a cup, and the diluted solutions are sprayed into the seedling at a ratio of 20 mL/seedling. Thereafter, the stem and leaf thereof are cut out and then is installed into a cup that is covered with filter paper on the bed of the cup. Five (5) cotton worm (Spodoptera litura) at the second instar larval stage are released into the cup. After 5 days, the number of the surviving insects is counted, and the mortality of insects is calculated by the following equation. [formula]

[3] = system: diamondback moth (Plutella xylostella); assay: Test Method 4: sprayed cabbage leaves fed to second instar diamondback moth; details: 120 h, second instar larvae, after 5 days, 25°C, read-out: mortality of insects
Procedure: Next, an efficacy of the present compound on controlling harmful arthropods is shown by Test examples. The following tests in the test examples below were conducted at 25°C.
Test compounds are made to a formulation according to a similar method to that described in the Formulation example 1, and thereto is added water containing 0.03 v/v% of Shindain (registered trademark) to prepare a diluted solution containing a prescribed concentration of the test compound.
as §2, with “diamondback moth (Plutella xylostella)” for “cotton worm (Spodoptera litura)”

[4] = system: cotton worm (Spodoptera litura); assay: Test Method 9: sprayed cabbage seedling, third instar cotton worm (Formulation example 5); details: 144 h, third instar larvae, after 6 days, 25°C, read-out: controlling value
Procedure: as §1
(§3) Cabbage (Brassicae oleracea) seedling (on the developmental stage of the third to fourth true leaf) is planted in a cup, and the diluted solutions are sprayed into the seedling at a ratio of 20 mL/seedling. Thereafter, ten (10) cotton worm (Spodoptera litura) at the third instar larval stage are released onto the seedling. After 6 days, the number of the surviving insects is counted, and the mortality of insects is calculated by the following equation. [formula]

[5] = system: diamondback moth (Plutella xylostella); assay: Test Method 10: sprayed cabbage seedling, third instar diamondback moth (Formulation example 5); details: 144 h, third instar larvae, after 6 days, 25°C, read-out: controlling value
Procedure: as §1
as §3, with “diamondback moth (Plutella xylostella)” for “cotton worm (Spodoptera litura)”

[6] = system: cotton aphids (Aphis gossypii); assay: Test Method 11: foliar spray on cucumber seedling infested with cotton aphids (Formulation example 5); details: 120 h, spray 10 mL/seedling, examined after 5 days, 25°C, read-out: controlling value
[7] = system: common house mosquitos (Culex pipiens pallens); assay: Test Method 12: mosquito larvae released into diluted solution; details: 24 h, last instar larvae, after 1 day, 25°C, read-out: controlling value
Procedure: as §1
Into the diluted solution, 30 common house mosquitos (Culex pipiens pallens) at the last instar larval stage are released, and after 1 day, the state of the house mosquito larvae is examined, and the mortality of insects is calculated by the following equation. [formula]

SMILES	mortality at 500 ppm [1] [%]	mortality at 500 ppm [2] [%]	mortality at 500 ppm [3] [%]	mortality at 50 ppm [4] [%]	mortality at 200 ppm [4] [%]	mortality at 50 ppm [5] [%]	mortality at 200 ppm [5] [%]	mortality at 50 ppm [6] [%]	mortality at 200 ppm [6] [%]	mortality at 3.5 ppm [7] [%]
CCSc1c(C(=O)N(C)c2nc3ccc(F)cc3s2)nc2ccc(I)cn12 [compound 2]	≥ 90	≥ 80	≥ 80							
CCSc1c(C(=O)N(C)c2nc3cc(F)ccc3s2)nc2ccc(I)cn12 [compound 3]		≥ 80	≥ 80							
CCSc1c(C(=O)N(C)c2nc3cccc(F)c3o2)nc2ccc(I)cn12 [compound 18]	≥ 90		≥ 80							
CCS(=O)(=O)c1c(C(=O)N(C)c2nc3cc(F)ccc3s2)nc2ccc(I)cn12 [compound 24]	≥ 90	≥ 80	≥ 80	≥ 80	≥ 80	≥ 80	≥ 80	≥ 90	≥ 90	
CCS(=O)(=O)c1c(C(=O)N(C)c2nc3cccc(Cl)c3s2)nc2ccc(I)cn12 [compound 27]	≥ 90	≥ 80		≥ 80	≥ 80			≥ 90	≥ 90	
CCS(=O)(=O)c1c(C(=O)N(C)c2nc3ccc(C)cc3s2)nc2ccc(I)cn12 [compound 32]		≥ 80	≥ 80			≥ 80	≥ 80			
CCS(=O)(=O)c1c(C(=O)N(C)c2nc3cccc(F)c3o2)nc2ccc(I)cn12 [compound 39]			≥ 80							
CCSc1cccnc1C(=O)N(C)c1nc2cc(C(F)(F)F)ccc2s1 [compound 49]		≥ 80	≥ 80							
CCS(=O)(=O)c1cccnc1C(=O)N(C)c1nc2cc(C(F)(F)F)ccc2o1 [compound 54]	≥ 90		≥ 80							
CCS(=O)(=O)c1cccnc1C(=O)N(C)c1nc2cc(C(F)(F)F)ccc2s1 [compound 55]	≥ 90		≥ 80							
CCS(=O)(=O)c1cc(-c2ccc(C#N)cc2)cnc1C(=O)N(C)c1nc2cc(F)c(F)cc2s1 [compound 60]			≥ 80							
CCSc1c(C(=O)N(C)c2nc3ccc(F)cc3n2C)nc2ccc(I)cn12 [compound 69]	≥ 90		≥ 80					≥ 90	≥ 90	
CCS(=O)(=O)c1c(C(=O)N(C)c2nc3ccc(F)nc3s2)nc2ccc(I)cn12 [compound 75]	≥ 90	≥ 80	≥ 80		≥ 80		≥ 80		≥ 90	
CCS(=O)(=O)c1c(C(=O)N(C)c2nc3ccc(F)cc3n2C)nc2ccc(I)cn12 [compound 78]	≥ 90	≥ 80	≥ 80				≥ 80	≥ 90	≥ 90	
CCS(=O)(=O)c1c(C(=O)N(C)c2nc3cc(F)ccc3n2C)nc2ccc(I)cn12 [compound 79]	≥ 90	≥ 80	≥ 80		≥ 80		≥ 80	≥ 90	≥ 90	
CCS(=O)(=O)c1c(C(=O)N(C)c2nc3cc(F)cc(F)c3s2)nc2ccc(I)cn12 [compound 80]		≥ 80	≥ 80		≥ 80		≥ 80			
CCS(=O)(=O)c1c(C(=O)N(C)c2nc3cc(F)c(Cl)cc3s2)nc2ccc(I)cn12 [compound 81]			≥ 80							

SMILES	mortality at 500 ppm [1] [%]	mortality at 500 ppm [2] [%]	mortality at 500 ppm [3] [%]	mortality at 50 ppm [4] [%]	mortality at 200 ppm [4] [%]	mortality at 50 ppm [5] [%]	mortality at 200 ppm [5] [%]	mortality at 50 ppm [6] [%]	mortality at 200 ppm [6] [%]	mortality at 3.5 ppm [7] [%]
CCN(C(=O)c1nc2ccc(I)cn2c1S(=O)(=O)CC)c1nc2cc(F)c(F)cc2s1 [compound 96]	≥ 90	≥ 80	≥ 80					≥ 90	≥ 90	
CCS(=O)(=O)c1c(C(=O)N(CC#N)c2nc3cc(F)c(F)cc3s2)nc2ccc(I)cn12 [compound 98]			≥ 80							
C#CCN(C(=O)c1nc2ccc(I)cn2c1S(=O)(=O)CC)c1nc2cc(F)c(F)cc2s1 [compound 99]			≥ 80							
CCS(=O)(=O)c1c(C(=O)N(C)c2nc3cc(F)c(F)cc3s2)nc2ccc(C3CC3)cn12 [compound 102]	≥ 90	≥ 80	≥ 80	≥ 80	≥ 80	≥ 80	≥ 80	≥ 90	≥ 90	
CCS(=O)(=O)c1cc(-c2ccc(F)cn2)cnc1C(=O)N(C)c1nc2cc(F)c(F)cc2s1 [compound 110]		≥ 80	≥ 80	≥ 80	≥ 80	≥ 80	≥ 80			≥ 90
CCS(=O)(=O)c1cc(-n2cc(Cl)cn2)cnc1C(=O)N(C)c1nc2cc(F)c(F)cc2s1 [compound 112]		≥ 80	≥ 80	≥ 80	≥ 80		≥ 80			
CCS(=O)(=O)c1cccnc1C(=O)N(C)c1nc2cc(F)c(F)cc2s1 [compound 114]		≥ 80	≥ 80							
CCS(=O)(=O)c1cc(C(F)(F)F)ccc1C(=O)N(C)c1nc2cc(F)c(F)cc2s1 [compound 120]		≥ 80	≥ 80	≥ 80	≥ 80	≥ 80	≥ 80			
CCCOc1cnc(C(=O)N(C)c2nc3cc(F)c(F)cc3s2)c(S(=O)(=O)CC)c1 [compound 126]		≥ 80	≥ 80	≥ 80	≥ 80		≥ 80		≥ 90	
CCS(=O)(=O)c1cc(OC(C)(C)C)cnc1C(=O)N(C)c1nc2cc(F)c(F)cc2s1 [compound 128]	≥ 90	≥ 80	≥ 80	≥ 80	≥ 80	≥ 80	≥ 80		≥ 90	
CCS(=O)(=O)c1ccc(NC(=O)OC(C)(C)C)nc1C(=O)N(C)c1nc2cc(F)c(F)cc2s1 [compound 129]		≥ 80	≥ 80		≥ 80		≥ 80			≥ 90
CCS(=O)(=O)c1ccc(-c2ccccn2)nc1C(=O)N(C)c1nc2cc(F)c(F)cc2s1 [compound 133]		≥ 80	≥ 80	≥ 80	≥ 80		≥ 80		≥ 90	
CCS(=O)(=O)c1ccc(NCCCN(C)C)nc1C(=O)N(C)c1nc2cc(F)c(F)cc2s1 [compound 136]			≥ 80				≥ 80			≥ 90
CCS(=O)(=O)c1ccc(Nc2ccc(C)cc2)nc1C(=O)N(C)c1nc2cc(F)c(F)cc2s1 [compound 137]			≥ 80							
CCS(=O)(=O)c1c(C(=O)N(C)c2nc3cc(F)c(F)cc3s2)nc(Br)n1C [compound 140]			≥ 80				≥ 80			
CCS(=O)(=O)c1c(C(=O)N(C)c2nc3cc(F)c(F)cc3s2)nc(-c2cnn(C(F)F)c2)n1C [compound 143]		≥ 80	≥ 80							
CCS(=O)(=O)c1c(C(=O)N(C)c2nc3cc(Cl)c(F)cc3s2)nn(C)c1C1CC1 [compound 145]			≥ 80				≥ 80			
